Test results as given in patent EP0594651B1, “DRIED BLOOD CELLS AND METHOD OF PREPARATION” (QUADRANT HOLDINGS CAMBRIDGE LIMITED, priority 1991, dated 1993).

Key:
blood cells = experiment: Vacuum-drying of blood cells in trehalose without organic osmolyte, then rehydration; type: cell-based; conditions: result in words; vacuum-drying in the absence of an organic osmolyte
platelets = experiment: Freeze-drying of platelets from Platelet Rich Plasma and recovery of whole platelets on rehydration (Example 5); type: cell-based; conditions: result in words
Description: Blood was collected into the anti-coagulant, acid-citrate-dextrose, and the mixture then centrifuged at approximately 1100 x g for three minutes to harvest Platelet Rich Plasma.
Aliquots of the Platelet Rich Plasma were then incubated in the presence of varying concentrations of proline, carnitine and trehalose on their own, and proline and carnitine in combination with trehalose, as well as a test sample in 7.5% NaCl. All samples were incubated for 37°C for 2 hours on a slowly moving rotary mixer, before freezing and drying.
The dehydrated samples were rehydrated with either 1 volume of water, or 1 volume of water containing 2% carnitine. […] Results obtained when rehydrating with water in the presence of 2% carnitine were generally about 25% better than those achieved with water alone.

erythrocytes [1] = experiment: Freeze-dried erythrocytes rehydrated with solution A, then PBS; integrity assessed microscopically (Example 2); type: cell-based; conditions: then equivalent amount of PBS
Description: After the dehydrated samples were resuspended fully, an equivalent amount of PBS was added, and the integrity of the erythrocytes were assessed microscopically.

red cells = red cells dried in proline plus sugar 10% (w/v), stored at room temperature for 3 months
Description: Fresh blood was withdrawn by venepuncture from healthy volunteers into the anti-coagulant EDTA (final concentration 5mM). The blood was centifuged and then washed 3 to 4 times in a potassium free buffered salt solution which contains the following ingredients: Table 5
The cells were then resuspended finally at 50% and incubated for 60 minutes at 4°C, and aliquots were then dried at ambient temperature (evaporation cooled the samples) under a vacuum of less than 5 x 10^-2 mbar (50 Pa) for approximately 16 hours.
The red cells were dried in aliquots of 250µl and the rehydration was inititated by the addition of 250µl of solution 1 to the dry aliquots. The cells were allowed to rehydrate slowly, and when in solution, 500µl of solution 2 was added. At this stage the cells were viewed under the microscope and the number of apparently intact cells was counted. A further 1 ml of solution 2 was then added and the cells were then centrifuged at 5,220 x g for 5 minutes. The supernatant was removed and the cells were resuspended in solution 2. For typing the red cell antigenic status, an equal volume of the red cells in solution 2 was added to an equal volume of an antibody mixed 1 : 1 with solution 1.
The concentration of each sugar used was 10% (w/v). […]

erythrocytes [2] = experiment: Freeze-dried blood rehydrated with solution A and PBS; intact cells assessed by fluorescein dye exclusion (Example 4); type: cell-based
Description: The solutions were incubated at 37°C for 2 hours and then frozen onto the walls of a […] in a thin shell by first immersing the flask while rotating it, in a mixture of solid carbon dioxide and methylated spirits. […] The blood was dried under this vacuum for at least 16 hours. […] The dry blood was rehydrated with 1 volume of solution A (see Example 2), and when all the dry blood was resuspended, an equivalent volume PBS was added.

erythrocytes [3] = experiment: Erythrocytes incubated in an organic osmolyte, freeze-dried, rehydrated in PBS with 40% glucopyranosyl sorbitol; intact erythrocytes counted microscopically (Example 1); type: cell-based; conditions: for % Intact Cells: incubated 2 hours at 37°C, freeze-dried; for freeze drying of erythrocytes: result in words
Description: Whole blood was collected by venepuncture into the anticoagulant EDTA (used at a final concentration of 5mM), and then incubated for 2 hours at 37°C in one of the following osmolytes: proline, carnitine and betaine, over a range of concentrations. The samples were then frozen into a thin shell on the walls of the vessel and then placed under vacuum for drying. The vacuum was typically less than 25 µm Hg ([…]), and the samples were held under this vacuum for approxiamtely 16 hours.
The freeze-dried samples were rehydrated by resuspending some of the dry material in an hypertonic solution consisting of phosphate buffered saline (PBS) containing glucopyranosyl sorbitol at a concentration of 40%. The samples were then assesed microscopically to determine the number of intact erythrocytes.

## OC[C@H]1O[C@H](O[C@H]2O[C@H](CO)[C@@H](O)[C@H](O)[C@H]2O)[C@H](O)[C@@H](O)[C@@H]1O [trehalose]
Blood cells
  cells on rehydration: only a very small percentage of cells
platelets
  platelets recovered on reconstitution: almost exclusively 'ghost' platelets

## O=C(O)[C@@H]1CCCN1 [Proline, proline]
Erythrocytes [1]
  % Intact Cells: 79%
Red cells
  % apparently intact cells: 67%
Erythrocytes [2]
  % Intact Cells: 78%
Erythrocytes [3]; Final Concentration 5
  % Intact Cells: 0%
Erythrocytes [3]; Final Concentration 10
  % Intact Cells: 62%
Erythrocytes [3]; Final Concentration 15
  % Intact Cells: 81%
Erythrocytes [3]; Final Concentration 20
  % Intact Cells: < 1%
Erythrocytes [3]
  freeze drying of erythrocytes: particularly successful

## C[N+](C)(C)CC(=O)O [Betaine, betaine]
Erythrocytes [3]; Final Concentration 5
  % Intact Cells: 0%
Erythrocytes [3]; Final Concentration 10
  % Intact Cells: 35%
Erythrocytes [3]; Final Concentration 15
  % Intact Cells: < 5%
Erythrocytes [3]; Final Concentration 20
  % Intact Cells: 0%

## C[N+](C)(C)CC(O)CC(=O)[O-] (stereo not drawn) [Carnitine, carnitine]
Erythrocytes [1]
  % Intact Cells: 87%
Erythrocytes [2]
  % Intact Cells: 70%
Erythrocytes [3]; Final Concentration 5
  % Intact Cells: 0%
Erythrocytes [3]; Final Concentration 10
  % Intact Cells: < 1%
Erythrocytes [3]; Final Concentration 15
  % Intact Cells: 75%
Erythrocytes [3]; Final Concentration 20
  % Intact Cells: 62%
Erythrocytes [3]
  freeze drying of erythrocytes: particularly successful
